Laboratory results published in paper PMC12649535, “Development of New Antimicrobial Peptides by Directional Selection” (Antibiotics, 2025).
Ends that are not written are not given here.

How the values were obtained:
Type in all cases: cell-based
[1] = tested on: Bacillus subtilis 168 HT; details: 16 h
Description: (§1) Peptides were synthesized on an automated Liberty Blue synthesizer (CEM Corp., Matthews, NC, USA) using solid-phase Fmoc chemistry with microwave-assisted heating. Two types of resin were selected for peptide synthesis to accommodate different molecular weights. Fmoc-Rink amide aminomethyl-polystyrene resin (ABCR GmbH & Co KG, Karlsruhe, Germany) with a loading capacity of 0.78 mmol/g was used for peptides with a molecular weight of up to 3 kDa. For peptides with a molecular weight exceeding 3 kDa, Fmoc-Rink amide PEG MBHA resin (ABCR GmbH & Co KG, Karlsruhe, Germany) with a loading capacity of 0.48 mmol/g was used. The target products were obtained with a purity of over 95% after purification of the peptides by reversed-phase HPLC on an AKTA Pure 25 M1 system (GE Healthcare Life Sciences, Chicago, IL, USA) equipped with a Zorbax SB-C18 column (Agilent Technologies, Santa Clara, CA, USA) and UV detection. All HPLC-spectra and HRMS-spectra are available at the Supplementary Materials (Figures S1–S23). The antimicrobial activity of synthetic peptides was measured using the standard microdilution method in microtiter plates. Peptides were dissolved in water to a concentration of 1 mM. Cultures of Bacillus subtilis 168 HT and Escherichia coli MG1655 were grown in a shaker at 30 °C in MHB medium (BD Difco, Thermo Fisher Scientific Inc., Waltham, MA, USA) for 16 h. The resulting cultures were diluted 1:50 in fresh MHB medium and grown in a shaker at 37 °C until reaching mid-logarithmic phase. The bacterial cultures were then further diluted in MHB to a concentration of 10^6 CFU/mL.
(§2) Peptides were serially twofold diluted in MHB in 96-well plates to final concentrations ranging from 100 to 0.2 µM, with a total volume of 50 µL per well. Subsequently, 50 µL of bacterial suspension (10^6 CFU/mL) was added to each well. Plates were incubated overnight at 37 °C. Each experiment included positive controls (melittin) and negative controls (without peptide). Antimicrobial activity was assessed by measuring the optical density at 600 nm (OD600) using a microplate reader AMR-100.

[2] = tested on: Escherichia coli MG1655; details: MG1655, 16 h
Description: as §1, §2

[3] = tested on: Expi293F cells; assay: Cytotoxicity, MTT assay; details: Figure 7 and text, 24 h, 200 to 0.0975 µM, NA = no activity within tested concentration range
Description: For the synthesized peptides, we determined the minimum inhibitory concentration (MIC) against B. subtilis (MICBs) and E. coli (MICEc) and measured cytotoxicity (IC90) in Expi293F cells (human embryonic kidney cells) using an MTT assay (Figure 7A–C, Tables S1–S4).
Peptide cytotoxicity was assessed using the MTT assay on Expi293F cells (human embryonic kidney cells) (Thermo Fisher Scientific, Waltham, MA, USA). Viable cells with active metabolism reduce water-soluble MTT (Abcam, Cambridge, UK) to insoluble formazan, while dead cells lose this ability and produce no signal. The absorbance measured at 600 nm is proportional to the number of living cells. Expi293F cells were seeded in 96-well plates at a density of 1 × 10^5 cells/mL. After 24 h, peptides were added to the wells at final concentrations ranging from 200 to 0.0975 µM. […] Cells were incubated with peptides in a CO2 incubator at 37 °C and 5% CO2 for 24 h. […] Peptide cytotoxicity was evaluated by measuring optical density at 600 nm and 690 nm using a microplate reader AMR-100. Normalized absorbance was defined as (OD600–OD690). The percentage of cell viability was calculated using the formula: % Cell viability = (ODtreated/ODtotal) × 100, where ODtreated is the normalized absorbance of treated cells and ODtotal is the normalized absorbance of non-treated (control) cells.

EKGWRRWIFYCF-NH2 [A2R2P3]
MIC B. subtilis [1]: 25.0 µM | MIC E. coli [2]: 50.0 µM

EIGWRRRICNYL-NH2 [A2R2P7]
MIC B. subtilis [1]: 6.2 µM | MIC E. coli [2]: 25.0 µM

SWLSKTAKKLENSAKKRISEGIAIAIQGGPR-NH2 [cecropin, reference compound]
MIC E. coli [2]: 0.4 µM | IC90 (cytotoxicity, concentration that inhibits 90% of cell growth) [3]: 200 µM

SLIFKIVKKMDDIGKKRIREGIAIPLQGGPR-NH2 [CR2P7]
MIC E. coli [2]: 50.0 µM

EKDWPRRILYCF-NH2 [A2R3P10]
MIC B. subtilis [1]: 50.0 µM

EKGWRRWIFNYF-NH2 [A2R1P5]
MIC B. subtilis [1]: 6.2 µM | MIC E. coli [2]: 6.2 µM

EKGRRRWIFYFF-NH2 [A2R3P7]
MIC B. subtilis [1]: 25.0 µM | MIC E. coli [2]: 12.5 µM

EKGWRRWIFFSF-NH2 [A2R3P6]
MIC B. subtilis [1]: 12.5 µM | MIC E. coli [2]: 12.5 µM

SLMFITVKKLDNSSRIRIRVGIAIAIQGGPR-NH2 [CR2P2]
MIC B. subtilis [1]: 25.0 µM | MIC E. coli [2]: 25.0 µM

SLMFKTVKKMDNSVKKRFREGMAIAMQCGPR-NH2 [CR2P9]
MIC B. subtilis [1]: 25.0 µM | MIC E. coli [2]: 3.1 µM

EKGWLRRIFYCF-NH2 [A2R3P8]
MIC B. subtilis [1]: 6.2 µM | MIC E. coli [2]: 25.0 µM

SFVCKTVKKMNNSAKKGFREGIALAIQGGPR-NH2 [CR2P8]
MIC B. subtilis [1]: 25.0 µM | MIC E. coli [2]: 6.2 µM

SLMFKTVKKMDNSAKKRIREGIAIAIQGGPR-NH2 [CR1P5]
MIC E. coli [2]: 6.2 µM

EKRWRRLIFNYF-NH2 [Hm-AMP2, reference compound]
MIC B. subtilis [1]: 12.5 µM | MIC E. coli [2]: 3.1 µM
